Experimental findings from PMC10799935, “Discovery of a peripheral 5HT2A antagonist as a clinical candidate for metabolic dysfunction-associated steatohepatitis” (Nature Communications, 2024) are described below.

For series [1], the target named is T1, 5HT2A (Homo sapiens, UniProt P28223). As to the kind of experiment: Human 5HT2A inhibition assay (FLIPR calcium 6, 5HT stimulus, stably transfected HEK293 cells). To be noted: HEK293, 10 μM; read-out: % Inhibition at 10 μM (SD). On the set-up: expressed in transfected cells; host or cells: HEK293. It counts as cell-based.
T1 sequence (P28223 whole entry): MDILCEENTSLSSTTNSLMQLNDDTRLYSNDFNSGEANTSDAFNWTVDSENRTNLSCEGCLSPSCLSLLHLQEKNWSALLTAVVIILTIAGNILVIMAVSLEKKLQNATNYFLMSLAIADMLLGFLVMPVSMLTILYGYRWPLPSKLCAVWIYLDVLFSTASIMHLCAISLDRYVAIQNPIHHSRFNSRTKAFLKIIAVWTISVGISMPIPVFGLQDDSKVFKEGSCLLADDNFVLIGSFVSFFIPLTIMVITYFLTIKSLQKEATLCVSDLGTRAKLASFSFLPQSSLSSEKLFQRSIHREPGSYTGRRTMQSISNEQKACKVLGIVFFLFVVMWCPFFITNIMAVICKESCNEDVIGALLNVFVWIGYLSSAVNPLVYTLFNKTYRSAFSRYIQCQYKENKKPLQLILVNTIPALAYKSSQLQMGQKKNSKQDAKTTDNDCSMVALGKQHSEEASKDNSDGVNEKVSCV
Series [2] concerns the target T1, 5HT2A. The description is as above. It counts as cell-based. On the set-up: expressed in transfected cells; host or cells: HEK293. To be noted: for inhibition at 1 µM: HEK293, 1 μM, read-out: % Inhibition at 1 μM (SD). How it is done: The derivatives were evaluated at a concentration of 1 μM for their antagonist activity on the 5HT2A receptor (Tables 1–3)[33],[34]. […] The cells were stained with 100 μL of cytosolic calcium dye using the FLIPR calcium 6 assay solution (Molecular devices, #R8190) supplemented with 2.5 mM probenecid (Sigma; P8761) and incubated for 1 h at 37 °C. After 1 h, the designated amount of the compound was treated in each well and incubated for another 1 h at 37 °C. […] Experimental conditions for the 5HT subtypes can be found in the Supporting Information (Supplementary Table 1).

Series [3] can be described thus: Liver microsomal stability, rat. It counts as in vitro ADME. The text has this:
(§1) Based on the structure and activity of the two series above, we replaced the alcohol with –CH2.
(Liver microsomes are a subcellular fraction often used to study metabolism.)

Series [4] is described as follows: Liver microsomal stability, human. It counts as in vitro ADME.
Description: as §1

Series [5] in a line: Liver microsomal stability (species not stated). It counts as in vitro ADME.
The next series deals with STZ+HFD mice. As to the kind of experiment: STZ+HFD mice (modified STAM) NASH and liver fibrosis model. It counts as in vivo, mouse. To be noted: 11c 5 or 10 mg/kg, OCA 10 mg/kg. How it is done:
Mice were intraperitoneally injected with low-dose streptozotocin (40 mg/kg; 5 times) in 7-week-old mice. After injection with STZ, mice were fed an HFD for 16 weeks to induce NASH and liver fibrosis. After 16 weeks of an HFD, mice were fed a standard chow diet to mimic the NASH patient under […]
nine weeks by oral gavage (Reviewer-only data 4). […]
inflammation, hepatocyte ballooning, and total NAFLD activity score by the NASH CRN histological scoring system (Reviewer-only data 4B, C). […]
hepatic fibrosis stage similar to STZ+HFD mice treated with OCA (Reveiwer-only data 4D, E). STZ+HFD mice […]
function (Reviwer-only data 4F). […]
group (Reviewer-only data 4G). Furthermore, the expression of genes related to lipogenesis and fibrosis was reduced in the compound 11c-treated group in a dose-dependent manner (Reviewer-only data 4H, I). These […]
Reviewer-only Data 4. Compound 11c treatment with dietary modification ameliorates NASH and liver fibrosis in a dose-dependent manner. (A) Experimental scheme for in vivo efficacy of compound 11c in […]
(STZ+HFD mice. (B-I) STZ+HFD mice fed HFD for 16 weeks were switched to SCD for 9 weeks and were treated with vehicle, compound 11c, or OCA by daily oral gavage. (B) Representative liver histology by H&E staining […]
mg/kg. Scale bars, 100µm. […]
mice; n = 9 per group. (D) Representative liver histology by Masson’s trichrome staining from vehicle, […]
Scale bars, 100µm. (E) Fibrosis stage
(F) Serum AST and ALT levels; n = 9 per […]
group. (G) Serum TG levels and hepatic TG levels; n = 9 per group. (H) Relative mRNA expression of lipogenesis-related genes as assessed by qRT-PCR in the liver; n = 9 per group. (I) Relative mRNA expression of fibrosis-related genes as assessed by qRT-PCR in the liver; n = 9 per group. Data are expressed as the means ±SEM.
[…], **P<0.01, one-way ANOVA with post hoc Tukey’s test (C, E, F, G, H, I). […]
Representative liver histology by Masson’s trichrome staining and Sirius Red staining. Scale bars, 100µm. (E) […]
one-way ANOVA with post hoc Tukey’s test (C, E).
Comment 2: In "Methods", the author claims to use HEK293 cells (a type of cell derived from kidney embryos) for cell research, however, the data in Table 5 are the results of hepatocyte experiments. What happened? Response: We appreciate the Reviewer’s comment. HEK293 cells were used for inhibition assay (cell research), shown in Table 1-3 of the main manuscript, while, hepatic cell lines were used for chemical profiling and for “Hepatocyte stability” test, shown in Table 5 of the main manuscript. The “Selectivity” of Compound 11c for different 5HT subtypes is elucidated in response to Comment 6.
We have modified the Methods section to provide clarity.

Entries after “also recorded” stand apart in the source; their conditions may differ.

For the compound `CC(=O)N1CCC(=C2c3ccc(Cl)cc3CCc3cccnc32)CC1` [Compound 3], at 5HT2A [1], the inhibition at 10 µM was -1%.
On the same count and under the same terms, the same measure for `CC(C)NC(=S)N1CCC(=C2c3ccc(Cl)cc3CCc3cccnc32)CC1` [Compound 5]: 8%.
With `CN1CCC(=C2c3ccc(Cl)cc3CCc3cccnc32)CC1` [Compound 6], the inhibition at 10 µM at 5HT2A [1] turned out to be 95 ± 0.31%. In addition, on 5HT2A [2], the IC50 was 119 nM and the inhibition at 1 µM was determined as 90 ± 0.62%.
Regarding `Cc1nc2n(c(=O)c1CCN1CCC(=C3c4ccc(Cl)cc4CCc4cccnc43)CC1)CCCC2` [Compound 11b], the “metabolic stability in the liver microsome (% after 30 min incubation)” value in series [3] came out at 11.7%. In addition, in series [4], the “metabolic stability in the liver microsome (% after 30 min incubation)” value stood at 17.3%. On 5HT2A [2], the IC50 came to 14 nM and the inhibition at 1 µM is 92.63 ± 0.6%. The “liver microsomal stability (in words)” value in series [5] is “metabolically unstable; also recorded: rapidly metabolized in the liver microsome”.
Consider `O=c1[nH]c2ccccc2c(=O)n1CCN1CCC(=C2c3ccc(Cl)cc3CCc3cccnc32)CC1` [Compound 11d], for which the “metabolic stability in the liver microsome (% after 30 min incubation)” value in series [3] was 0.50%. In series [4], the “metabolic stability in the liver microsome (% after 30 min incubation)” value was found to be 5.33%. On 5HT2A [2], the IC50 was 47 nM and the “IC50 (nM)” value is reported as “lower in vitro activity than 11c”. Further, at 5HT2A [2] (1 μM), the “% Inhibition at 1 μM (SD)” value was determined as 102 ± 0.03%. In series [5], the “liver microsomal stability (in words)” value was “metabolically unstable; also recorded: low liver microsomal stability”.
For the compound `CC[C@H]1[C@@H](O)[C@@H]2[C@H](CC[C@]3(C)[C@@H]([C@H](C)CCC(=O)O)CC[C@@H]23)[C@@]2(C)CC[C@@H](O)C[C@@H]12` [OCA, Obeticholic acid, reference compound], in the series on STZ+HFD mice, the hepatic fibrosis stage entry is given as “improvement”.

By inhibition is commonly meant the relative decrease from the control value, in per cent. In general, IC50 refers to the concentration that inhibits the measured activity by half. The term % Inhibition denotes the relative decrease from the control value, in per cent.
